Measurements reported in patent US6737383B1, “Herbicidal oxadiazolidines” (priority 1999, dated 2004).

What was measured:
[1] = test system: corn; experiment: Test B pre/postemergence corn; type: in vivo, Zea mays
Procedure, shortened: (§1)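 Herbicidal effect was estimated by eye on a ten-point control scale after plants spent twelve to sixteen days in a greenhouse following soil or foliar treatment. Foliar sprays targeted plants at one to four leaves; all doses were formulated in a non-phytotoxic solvent with surfactant.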

[2] = test system: smallflower flatsedge; experiment: Test B flood test smallflower flatsedge; type: in vivo, Cyperus difformis
Procedure, shortened: (§2)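 Each value is a visual injury score relative to controls, with 10 meaning complete control and 0 no effect. Evaluation took place twelve to sixteen days after the 2-leaf-stage plants were treated and kept in the greenhouse.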

[3] = test system: rape; experiment: Test B pre/postemergence rape; type: in vivo, Brassica napus
Procedure, shortened: as §1

[4] = test system: crabgrass; experiment: Test B pre/postemergence crabgrass; type: in vivo, Digitaria sanguinalis
Procedure, shortened: as §1

[5] = test system: wild oat; experiment: Test B pre/postemergence wild oat; type: in vivo, Avena fatua
Procedure, shortened: as §1

[6] = test system: duck salad; experiment: Test B flood test duck salad; type: in vivo, Heteranthera limosa
Procedure, shortened: as §2

[7] = test system: wheat; experiment: Test B pre/postemergence wheat; type: in vivo, Triticum aestivum
Procedure, shortened: as §1

[8] = test system: purple nutsedge; experiment: Test B pre/postemergence purple nutsedge; type: in vivo, Cyperus rotundus
Procedure, shortened: as §1

[9] = test system: surinam grass; experiment: Test B pre/postemergence surinam grass; type: in vivo, Brachiaria decumbens
Procedure, shortened: as §1

[10] = test system: sugar beet; experiment: Test B pre/postemergence sugar beet; type: in vivo, Beta vulgaris
Procedure, shortened: as §1

[11] = test system: morningglory; experiment: Test B pre/postemergence morningglory; type: in vivo, Ipomoea hederacea
Procedure, shortened: as §1

[12] = test system: pigweed; experiment: Test B pre/postemergence pigweed; type: in vivo, Amaranthus retroflexus
Procedure, shortened: as §1

[13] = test system: cocklebur; experiment: Test B pre/postemergence cocklebur; type: in vivo, Xanthium strumarium
Procedure, shortened: as §1

[14] = test system: giant foxtail; experiment: Test B pre/postemergence giant foxtail; type: in vivo, Setaria faberii
Procedure, shortened: as §1

[15] = test system: rice; experiment: Test B flood test rice; type: in vivo, Oryza sativa
Procedure, shortened: as §2

[16] = test system: bamyardgrass; experiment: Test B flood test barnyardgrass; type: in vivo, Echinochloa crus-galli
Procedure, shortened: as §2

[17] = Postemergence, Rate 62 g/ha, scale 0 to 10, 0 is no effect, 10 is complete control
[18] = Postemergence, Rate 250 g/ha, scale 0 to 10, 0 no effect, 10 complete control
[19] = Preemergence, Rate 31 g/ha, visual rating, scale 0 to 10 (0 no effect, 10 complete control)
[20] = Preemergence, Rate 62 g/ha, scale 0 to 10, 0 is no effect, 10 is complete control
[21] = Preemergence, Rate 125 g/ha, scale 0 to 10 (0 no effect, 10 complete control)
[22] = Preemergence, Rate 250 g/ha, scale of 0 to 10 where 0 is no effect and 10 is complete control
[23] = Rate 31 g/ha, Postemergence, scale 0 to 10
[24] = Rate 125 g/ha, Postemergence, scale 0 to 10, 0 no effect, 10 complete control
[25] = Rate 125 g/ha, Postemergence section (flood test species), scale 0 to 10, 0 no effect, 10 complete control
[26] = Rate 250 g/ha, headed Pre-emergence (flood test species), scale 0 to 10 (0 no effect, 10 complete control)
[27] = Rate 500 g/ha, headed Pre-emergence (flood test species), scale 0 to 10 (0 no effect, 10 complete control)
[28] = Rate 2000 g/ha, Pre-emergence (as headed), scale 0 to 10
[29] = flood test, listed under Postemergence, Rate 250 g/ha, scale 0 to 10, 0 no effect, 10 complete control
[30] = Rate 500 g/ha, Postemergence section of Table B, 0 to 10 scale (0 no effect, 10 complete control)
[31] = Rate 1000 g/ha, Pre-emergence (as headed), scale 0 to 10

## COc1ccccc1-n1c(=O)on(C(=O)N(c2ccc(F)cc2)C(C)C)c1=O [Compound 30]
[1]; [17]
  Corn plant response rating: 0
[1]; [18]
  Corn plant response rating: 0
[1]; [19]
  Corn plant response rating: 0
[1]; [20]
  Plant response rating, Corn: 0
[1]; [21]
  Plant response rating, Corn: 0
[1]; [22]
  Plant response rating, Corn: 0
[1]; [23]
  Corn plant response rating: 0
[1]; [24]
  Corn plant response rating: 0
[2]; [17]
  S. Flatsedge plant response rating: 0
[2]; Pre-emergence, Rate 1000 g/ha, scale 0 to 10 (0 no effect, 10 complete control)
  S. Flatsedge plant response rating: 0
[2]; [25]
  S. Flatsedge plant response rating: 0
[2]; [26]
  S. Flatsedge plant response rating: 0
[2]; [27]
  Plant response rating, S. Flatsedge: 0
[2]; [28]
  S. Flatsedge plant response rating: 0
[2]; [29]
  S. Flatsedge plant response rating: 0
[3]; [17]
  Rape plant response rating: 0
[3]; [18]
  Rape plant response rating: 0
[3]; [19]
  Rape plant response rating: 0
[3]; [20]
  Plant response rating, Rape: 0
[3]; [21]
  Plant response rating, Rape: 0
[3]; [22]
  Plant response rating, Rape: 0
[3]; [23]
  Rape plant response rating: 0
[3]; [24]
  Rape plant response rating: 0
[4]; [17]
  Crabgrass plant response rating: 1
[4]; [18]
  Crabgrass plant response rating: 9
[4]; [19]
  Crabgrass plant response rating: 2
[4]; [20]
  Plant response rating, Crabgrass: 3
[4]; [21]
  Plant response rating, Crabgrass: 9
[4]; [22]
  Plant response rating, Crabgrass: 10
[4]; [23]
  Crabgrass plant response rating: 0
[4]; [24]
  Crabgrass plant response rating: 8
[5]; [17]
  Wild oats plant response rating: 0
[5]; [18]
  Wild oats plant response rating: 0
[5]; [19]
  Wild oats plant response rating: 0
[5]; [21]
  Plant response rating, Wild oats: 2
[5]; [22]
  Plant response rating, Wild oats: 8
[5]; [24]
  Wild oats plant response rating: 0
[6]; [17]
  Ducksalad plant response rating: 0
[6]; [25]
  Ducksalad plant response rating: 0
[6]; [26]
  Ducksalad plant response rating: 0
[6]; [30]
  Ducksalad plant response rating: 0
[6]; [27]
  Plant response rating, Ducksalad: 0
[6]; [31]
  Ducksalad plant response rating: 0
[6]; [28]
  Ducksalad plant response rating: 0
[6]; [29]
  Ducksalad plant response rating: 0
[7]; [17]
  Wheat plant response rating: 0
[7]; [18]
  Wheat plant response rating: 0
[7]; [19]
  Wheat plant response rating: 0
[7]; [20]
  Plant response rating, Wheat: 0
[7]; [21]
  Plant response rating, Wheat: 0
[7]; [22]
  Plant response rating, Wheat: 2
[7]; [24]
  Wheat plant response rating: 0
[8]; [17]
  Nutsedge plant response rating: 0
[8]; [18]
  Nutsedge plant response rating: 0
[8]; [19]
  Nutsedge plant response rating: 0
[8]; [20]
  Plant response rating, Nutsedge: 0
[8]; [21]
  Plant response rating, Nutsedge: 0
[8]; [22]
  Plant response rating, Nutsedge: 0
[8]; [23]
  Nutsedge plant response rating: 0
[8]; [24]
  Nutsedge plant response rating: 0
[9]; [17]
  B. signalgrass plant response rating: 0
[9]; [18]
  B. signalgrass plant response rating: 0
[9]; [19]
  B. signalgrass plant response rating: 0
[9]; [20]
  Plant response rating, B. signalgrass: 0
[9]; [21]
  Plant response rating, B. signalgrass: 0
[9]; [22]
  Plant response rating, B. signalgrass: 4
[9]; [23]
  B. signalgrass plant response rating: 0
[9]; [24]
  B. signalgrass plant response rating: 0
[10]; [17]
  Sugarbeets plant response rating: 0
[10]; [18]
  Sugarbeets plant response rating: 0
[10]; [19]
  Sugarbeets plant response rating: 0
[10]; [20]
  Plant response rating, Sugarbeets: 0
[10]; [21]
  Plant response rating, Sugarbeets: 0
[10]; [22]
  Plant response rating, Sugarbeets: 0
[10]; [24]
  Sugarbeets plant response rating: 0
[11]; [17]
  Morningglory plant response rating: 1
[11]; [18]
  Morningglory plant response rating: 6
[11]; [19]
  Morningglory plant response rating: 0
[11]; [20]
  Plant response rating, Morningglory: 0
[11]; [21]
  Plant response rating, Morningglory: 0
[11]; [22]
  Plant response rating, Morningglory: 0
[11]; [23]
  Morningglory plant response rating: 1
[11]; [24]
  Morningglory plant response rating: 1
[12]; [17]
  Redroot pigweed plant response rating: 0
[12]; [18]
  Redroot pigweed plant response rating: 0
[12]; [19]
  Redroot pigweed plant response rating: 0
[12]; [20]
  Plant response rating, Redroot pigweed: 0
[12]; [21]
  Plant response rating, Redroot pigweed: 0
[12]; [22]
  Plant response rating, Redroot pigweed: 7
[12]; [23]
  Redroot pigweed plant response rating: 0
[12]; [24]
  Redroot pigweed plant response rating: 0
[13]; [17]
  Cocklebur plant response rating: 0
[13]; [18]
  Cocklebur plant response rating: 0
[13]; [19]
  Cocklebur plant response rating: 0
[13]; [20]
  Plant response rating, Cocklebur: 0
[13]; [21]
  Plant response rating, Cocklebur: 0
[13]; [23]
  Cocklebur plant response rating: 0
[13]; [24]
  Cocklebur plant response rating: 0
[14]; [17]
  Giant foxtail plant response rating: 0
[14]; [18]
  Giant foxtail plant response rating: 3
[14]; [19]
  Giant foxtail plant response rating: 2
[14]; [20]
  Plant response rating, Giant foxtail: 2
[14]; [21]
  Plant response rating, Giant foxtail: 3
[14]; [22]
  Plant response rating, Giant foxtail: 10
[14]; [23]
  Giant foxtail plant response rating: 0
[14]; [24]
  Giant foxtail plant response rating: 2
[15]; [17]
  Rice plant response rating: 0
[15]; [25]
  Rice plant response rating: 0
[15]; [26]
  Rice plant response rating: 0
[15]; [30]
  Rice plant response rating: 0
[15]; [27]
  Plant response rating, Rice: 0
[15]; [31]
  Rice plant response rating: 0
[15]; [28]
  Rice plant response rating: 0
[15]; [29]
  Rice plant response rating: 0
[16]; [17]
  Barnyardgrass plant response rating: 0
[16]; [25]
  Barnyardgrass plant response rating: 0
[16]; [26]
  Barnyardgrass plant response rating: 0
[16]; [30]
  Barnyardgrass plant response rating: 0
[16]; [27]
  Plant response rating, Barnyardgrass: 0
[16]; [31]
  Barnyardgrass plant response rating: 0
[16]; Rate 2000 g/ha, Pre-emergence (as headed), scale 0 to 10, 0 no effect, 10 complete control
  Barnyardgrass plant response rating: 0
[16]; [29]
  Barnyardgrass plant response rating: 0
